We go through 1 compound from publication PMC4026528 (PLoS ONE, 2014).

For assay [1], the system named is HT-1080 (fibrosarcoma) cells. Kind of assay: Soft agar assay (anchorage-independent growth), HT-1080. Type of assay: cell-based, human. How it is done: (§1) Soft agar assay and analysis was carried out as previously described. For scratch assay, confluent monolayer of U2OS and HT-1080 cells were subjected to scratch using a sterile pipette tip. Wounded monolayers were washed to remove debris and incubated with SEN461 at different concentrations for 20 hours. After the incubation period, images were taken under an Axiovert 200M (Zeiss) microscope equipped with a CCD camera, and the gap width was measured using MetaMorph 6.3 software (Universal Imaging Corp.) to calculate the area covered by cells (pixels unit). The tube formation assay was performed using growth factor-reduced Matrigel from BD (BD Biosciences; San Jose, CA, USA). Matrigel was thawed overnight at 4°C and was diluted (1∶1) with phenol red-free DMEM without serum. 100 µl of the diluted matrigel was used to coat the wells of a 96 well plate and was allowed to polymerize for 2 hours at 37°C. After equilibrating the gel with the complete growth medium, 15×10^3 cells were seeded in each well and incubated for 20 hours. The tube formation was monitored under a phase contrast microscope (Axiovert 200, Zeiss) and imaged using MetaMorph system (Universal Imaging Corp).

For a further assay, the system named is 143B osteosarcoma cells. Kind of assay: Soft agar assay (anchorage-independent growth), 143B. The conditions noted are these: lack of sensitivity up to highest concentration. Type of assay: cell-based, human. As for the experimental part:
as §1

Assay [2] deals with Wnt target gene mRNA in HT-1080 cells. Kind of assay: Quantitative RT-PCR of Wnt target genes in HT-1080. The class given is cell-based, human. The conditions noted are these: HT-1080, overnight, 10 µmol/L. As for the experimental part:
RNA extraction and quantitative RT-PCR (qPCR) expression analysis was performed as described previously. Gene expression analysis was performed using the human housekeeping gene RPL13A. Primers for the hAXIN2, hCDC25A, hc-MYC, hFZD4, hDVL2, hCSNK1G and hVEGF-A were the following: Fw: 5′-CAAGGGCCAGGTCACCAA-3′ Rv: 5′-CCCCCAACCCATCTTCGT-3′; Fw: 5′-[…]-3′ Rv: 5′-[…]-3′; Fw: 5′-GGCTCCTGGCAAAAGGTCA-3′ Rv: 5′-[…]-3′; Fw: 5′-[…]-3′ Rv: 5′-[…]-3′; Fw: 5′-[…]-3′ Rv: 5′-GTCTCCCCGCTCATTGCTC-3′; Fw: 5′-[…]-3′ Rv: 5′-[…]-3′; Fw: 5′-[…]-3′ Rv: 5′-[…]-3′.

The subject of assay [3] is Axin1, TNKS1/2, c-Myc protein in U2OS cells. As for the experimental part: Total, nuclear and cytosolic cells lysates were prepared as described previously. Commercial antibodies used in this study include anti-Axin1, anti-β-catenin, anti-P-β−catenin Ser33/Ser37/Thr41 and anti-HA from Cell Signaling Technologies, anti-p21 (Santa Cruz), anti-tankyrases (Abcam), anti-Tubulin and anti-c-Myc from Calbiochem, anti-GAPDH and anti-β-actin (Sigma). For co-localization experiments, U2OS cells were plated directly on coverslips coated with Fibronectin (Invitrogen). After transfections and incubation treatment of 24 h, cells were washed once with 1X PBS and then fixed with 4% paraformaldehyde for 15 min. After three washes in PBS, cells were permeabilized with 0.1% Triton X-100 for 10 min and washed three times with TBS (Bio-Rad). […] After 24 h, cells were washed three times with TBS and incubated for 1 h with the following secondary antibody Alexa Fluor 546-conjugated goat anti-rabbit IgG (Invitrogen, 1∶1000). Finally, coverslips were mounted onto glass slides using Prolong Gold Antifade reagent with DAPI (Invitrogen). Cells were examined under laser confocal fluorescence microscope with plan-apochromate 40x and 63x/1.4 oil-immersion objective (LSM 510 Meta, Axiovert 200, Zeiss). Co-localization experiments were performed in triplicate, and data/images presented are the average of at least 10 random fields for each independent experiment.

Assay [4] relates to Axin1 and β-catenin in G292 osteosarcoma cells. Kind of assay: Western blotting in G292. Type of assay: cell-based, human. For orientation: Immunoblotting shows a protein as a band on a membrane.
The test system of the next assay is HT-1080 cells. Kind of assay: Scratch assay (motility), HT-1080. The class given is cell-based, human. To be noted: HT-1080, 20 hours. How it is done:
as §1

The test system of a further assay is HUVEC cells. Kind of assay: Tube formation assay, HUVEC. The conditions noted are these: data not shown. The class given is cell-based. How it is done:
as §1

Assay [5] concerns Myc transcriptional activation in HEK293 cells. Kind of assay: Nucleolin promoter (pNucL14) luciferase reporter, HEK293. Type of assay: cell-based. The conditions noted are these: HEK293, pNucL14 ± FLAG-c-Myc. The source says:
(§2) The generation of TCF-Luciferase and TA-Renilla reporter plasmids as well as IC50 determination and calculation was reported previously. Human AXIN1 and WNT3A cDNAs were purchased from Origene as “transfection ready” plasmids. Dominant negative TCF4 cDNA was purchased from Upstate. Luciferase reporter of the nucleolin promoter (pNucL14) and FLAG-c-Myc expressing vector were from B. Amati. Luciferase reporter of the Hes5 promoter and Notch1-IC expressing vector were from I. Screpanti. Lentiviral vectors for inducible dominant negative TCF4 (rLV-EF1-tTS, rLV-EF1-rtTA and rLV-TRE-CMV-HA-TCF4DN) were purchased from Vectalys.
(§3) Transfections were carried out using Lipofectamine 2000 (Invitrogen) according to the manufacturer’s instructions. Lentiviral expression of TCF-Luc, TA-Renilla, and the inducible dominant negative TCF4, were carried out following Vectalys instructions. For reporter assays, luciferase activities were performed as described previously.

Assay [6] concerns Wnt transcriptional activity in DLD1 colorectal cancer cells. Kind of assay: TCF-Luciferase/TA-Renilla Wnt reporter assay in DLD1. The class given is cell-based. The conditions noted are these: DLD1, transiently transfected.
Source text: as §2, §3
(In general: A reporter such as luciferase makes a cellular process visible.)

The term IC50 denotes the concentration at which inhibition is half-maximal. A higher IC50 goes with a need for much substance.

Bounds are passed on as bounds.

On to `COCC(=O)N1CCN(C(=O)C2CCC(Cn3c(=O)c4cc(OC)ccc4n(C)c3=O)CC2)CC1` (stereo not drawn) [SEN461], for which 780 nM corresponded to half-maximal inhibition in assay [1] (IC50). This compound also came in with an IC50 in the assay on 143B osteosarcoma cells of more than 30 µM. For the same compound, the “c-MYC mRNA” value in assay [2] is “significant down-modulation”. Besides, in [3] (only at the highest concentration), the “tankyrases (TNKS1 and TNKS2) protein level” value is recorded as “very slight stabilization”. Further, the c-Myc protein level entry in assay [3] (overnight) is on record as “No effect”. For the same compound, the Axin1 protein level result in [3] (overnight, cytoplasmic lysates) is on record as “concentration-dependent stabilization”. Moreover, in assay [4], the Axin protein level result was “Axin stabilization” and the β-catenin level entry is on record as “β-catenin down-modulation”. In addition, the “cellular motility (two-dimensional scratch assay)” value in the assay with HT-1080 cells is given as “neither U2OS nor HT-1080 cells showed inhibition of motility”. Moreover, the tubule-formation activity result in the assay with HUVEC cells is recorded as “did not show any effect”. In addition, in [5], the “Myc mediated activation / basal activity of nucleolin reporter” value was “did not affect”. Also, the “Wnt transcriptional activity (TCF-Luciferase/TA-Renilla)” value in [6] is “Concentration dependent inhibition of Wnt transcriptional activity”.
